Source: patent US20230346735A1, “Nutritional Composition Comprising Carnitine and Method for Treating or Preventing an Infection in a Mammal” (priority 2020, published 2023)
Marks after values point to notes of the source that are not given here.

What was measured:
[1] = test system: superoxide dismutase; assay: Antioxidant capacity: superoxide dismutase in exercised rats; type: in vivo, rat; conditions: 6 weeks
Description: (§1) Fifty-six (56) Male Wistar rats that were 8-week old were obtained. The rats were reared at the temperature of 22 ± 2° C., the humidity of 55 ± 5%, and with a 12-hrs light-12-hrs dark cycle. All procedures involving rats were conducted in strict compliance with the relevant laws, the Animal Welfare Act, Public Health Services Policy, and guidelines established by the Institutional Animal Care and Use Committee of the Institute of the contracted University which completed the study.
(§2) After a week of the adaptation period, the rats were divided into eight equal groups containing seven rats each. The initial body weights of the rats were similar in all the groups (214.53 grams ± 4.67; P > 0.05).
(§3) Groups 1 and 2 were not subjected to an exercise routine. Groups 3-8 were subjected to an exercise regimen consisting of a week training period with an incremental exercise capacity described below. After the week training period the exercise regimen followed was each rat in Groups 3-8 were subjected to 6 weeks of running at 25 m/min during 45 min […]. […] These correspond to 0, 250, 500, 1000, 2000 and 4000 mg per day for humans, respectively.
(§4) The exercised rats were subjected to treadmill exercise on a motorized rodent treadmill (Commat Limited, Ankara, Turkey). The treadmill contained a stimulus grid at the back end of the treadmill giving an electric shock when the animal placed its paw on the grid. […] To eliminate the diurnal variations, all exercise tests were applied during the same time of the day. The week of training period was provided as pre-training practice for the animals to get familiar with the treadmill equipment and handling. In doing so, the rats in the exercise training groups were accustomed by treadmill exercise over 5 days such that: (i) 1st day, 10 m/min for 10 min, (ii) 2nd day, 20 m/min for 10 min, (iii) 3rd day, 25 m/min for 10 min, (iv) 4th day, 25 m/min for 20 min and (v) 5th day, 25 m/min for 30 min. After the training period, the rats in treadmill exercise groups ran on the treadmill 25 m/min for 45 min/ per day and five days per week for 6 weeks according to the protocol described by Sahin et al. Capsaicinoids Improve the Consequences of Physical Activity. Toxicol Rep. 2018;5:598-607, which is hereby incorporated by reference.
(§5) The exercise regimen was used to induce an inflammation and oxidative stress conditions. […] The results of malondialdehyde, superoxide dismutase, catalase, and glutathione peroxidase for each rat group are shown in TABLE 2.

[2] = test system: catalase; assay: Antioxidant capacity: catalase in exercised rats; type: in vivo, rat; conditions: 6 weeks
Description: as §1, §2, §3, §4, §5

[3] = test system: ACE-2; type: in vivo, rat
Description: Groups 1 and 2 were not subjected to an exercise routine. Groups 3-8 were subjected to an exercise regimen consisting of a week training period with an incremental exercise capacity described below. After the week training period the exercise regimen followed was each rat in Groups 3-8 were subjected to 6 weeks of running at 25 m/min during 45 min every day. […] These correspond to 0, 250, 500, 1000, 2000 and 4000 mg per day for humans, respectively.
After the 6-week exercise regimen was completed, muscle, lung, plasma and liver tissue samples were taken from these rats. The ACE-2 analysis of the tissue samples are subjected to the following test.
To determine the protein accumulation in the liver, muscle and lung samples, a Western Blotting test was used. Each of the tissue samples of the same group were pooled, homogenized, and sonicated in lysis buffer supplemented with 1X protease and phosphatase inhibitor cocktail (#5872, Cell Signaling). Total protein content was detected with Qubit 2.0 Fluorometer according to the manufacturer’s protocol (Invitrogen, Life Technologies Corporation, Carlsbad, CA, USA). Equal amounts of protein (20 µg) were size-fractionated using any-kD Mini-Protean TGX gel electrophoresis and then transferred to a nitrocellulose membrane using the Trans-Blot Turbo Transfer System (Bio-Rad, Life Sciences Research). Thereafter, membranes were blocked in 5% nonfat milk in Tris-buffered saline (TBS) containing 0.1% Tween (TBS-T; blocking solution) for 1 h at room temperature, washed in TBS-T, and incubated overnight with ACE-2 (Abcam, Cambridge, UK). The following day, membranes were washed with TBS-T and then incubated with horseradish peroxidase-conjugated goat anti-rabbit (Abcam, Cambridge, UK) or goat anti-mouse (Abcam, Cambridge, UK) secondary antibody (diluted 1:1000) for 1 h. Individual blots were performed at least three times. Protein loading was controlled by stripping and re-probing the nitrocellulose membrane with an anti-β-actin antibody (Abcam, Cambridge, UK). Protein levels were analyzed densitometrically using an image analysis system (Image J; National Institute of Health, Bethesda, MD, USA), corrected with values determined on β-actin blots and expressed as relative values compared with the control group.
To determine the mRNA expression levels of ACE-2 in the liver, lung and muscle samples a total RNA extraction and specific mRNA quantification was conducted by reverse transcription-polymerase chain reaction (RT-qPCR). Gene expressions were done by quantitative polymerase chain reaction (qPCR). […]

[4] = test system: ACE-2; assay: Rat plasma serum ELISA, ACE-2; type: in vivo; conditions: exercised rats, FIG. 5B
[5] = test system: C-Reactive Protein (CRP); assay: Human study, serum ELISA, CRP; type: in vivo
Description: (§6) A human study was run with a total of 80 healthy male and female subjects ranging from 21 to 65 years of age, who were active (i.e. 30 minutes per day of moderate activity, 3 days per week) are randomized into two groups. […] Seventy-three subjects completed the trial and biomarker data were analyzed from the sera of the 73 completers. Sera were collected for analysis of C-Reactive Protein (CRP), ACE 1, ACE 2, TMPRSS 2, the Tumor Necrosis Factor alpha (TNF-alpha), and Furin at baseline in the beginning of the trial, at week 5 and 48 hr after an exercise challenge as described (Clinicaltrials.gov NCT04420377). The exercise challenge serves as surrogate to the inflammation stimulus.
(§7) To obtain human sera, venous blood was extracted by venipuncture of the antecubital vein using a 21-gauge syringe and collected into a 10 mL EDTA vacutainer tube (BD Vacutainer®, Becton, Dickinson and Company, Franklin Lakes, NJ) by a certified phlebotomist. […] Human ACE-1, ACE-2, TMPRSS2, Furin, CRP and TNF-alpha protein levels were assessed using commercially available ELISA kits, according the manufacturer recommendations, ACE-1 (R&D systems Inc., Minneapolis, MN, USA), ACE-2 (RayBiotech inc., Peachtree Corners, GA), TMPRSS2 (Novus Biologicals, Littleton, CO), CRP (R&D Systems Inc., Minneapolis, MN), TNF-alpha (Novus Biologicals, Littleton, CO), and Furin (Sigma Aldrich, St. Louis, MO). […]

[6] = test system: TNF-alpha; assay: Human study, serum ELISA, TNF-alpha; type: in vivo
Description: as §6, §7

[7] = test system: Calu-3 cells; type: cell-based, human; conditions: Calu-3, 50 uM to 10 mM, 24 h, 48 h or 72 h
Description: Calu-3 cells were maintained in 50% DMEM (Dulbecco’s Modified Eagle Medium) + 50% Ham’s F12 media supplemented with 10% FBS (fetal bovine serum) and 1% penicillin/streptomycin. Vero E6 cells were maintained in DMEM media supplemented with 10% FBS and 1% penicillin/streptomycin.
Calu-3 seeded in a 96-well plate (30,000 cells) were stimulated with 50 uM, 100 uM, 250 uM, 500 uM, 1 mM and 10 mM Carnitine alone. At 24 h, 48 h or 72 h post stimulation, media was removed and cells were subjected to a standard MTT assay.

[8] = test system: ACE-1; assay: ACE-1 mRNA expression in Calu-3, RT real-time PCR; type: cell-based, human; conditions: Calu-3, 50 to 1,000 uM, 24 hr pre-treatment
[9] = test system: Furin; assay: Furin mRNA expression in Calu-3, RT real-time PCR; type: cell-based, human; conditions: Calu-3, 50 to 1,000 uM, 24 hr pre-treatment
[10] = test system: SARS-CoV-2; assay: microbe, parasite or virus in culture; type: cell-based
[11] = Car200: 200 mg/kg oral gavage, no exercise
[12] = Ex+Car25: exercise, 25 mg/kg oral gavage
[13] = Ex+Car50: exercise, 50 mg/kg oral gavage
[14] = Ex+Car100: exercise, 100 mg/kg oral gavage
[15] = Ex+Car200: exercise, 200 mg/kg oral gavage
[16] = Ex+Car400: exercise, 400 mg/kg oral gavage

## C[N+](C)(C)C[C@H](O)CC(=O)[O-] [L-carnitine]
[1]; [11]
  SOD: 95.87±2.47^cd U/mg protein
[1]; [12]
  SOD: 96.49±0.78^cd U/mg protein
[1]; [13]
  SOD: 102.89±2.69^bc U/mg protein
[1]; [14]
  SOD: 109.68±2.49^ab U/mg protein
[1]; [15]
  SOD: 114.56±2.70^a U/mg protein
[1]; [16]
  SOD: 120.16±3.58^a U/mg protein
[2]; [11]
  CAT: 147.19±2.01^de U/mg protein
[2]; [12]
  CAT: 144.55±3.21^de U/mg protein
[2]; [13]
  CAT: 152.72±2.50^cd U/mg protein
[2]; [14]
  CAT: 162.11±1.97^bc U/mg protein
[2]; [15]
  CAT: 170.77±2.57^b U/mg protein
[2]; [16]
  CAT: 186.10±2.50^a U/mg protein
[3]; exercised rats, oral, 6 weeks
  dose of maximum effect on ACE-2, TMPRSS2 and Furin levels: 200 mg/kg
[3]; exercised rats, tissues, versus exercise control
  ACE-2 mRNA levels: dose-dependent decrease
[3]; exercised rats, western blotting
  ACE-2 protein level: return to the baseline control
[3]; rats without exercise (inflammation), 200 mg/kg
  ACE-2 levels: does not affect these receptors
[4]
  serum ACE-2: reduction
[5]; at 48 hr-Post, p<0.005
  plasma CRP concentration, mean diff Group A versus Group B: -0.55 mg/L
[5]; from baseline after 5 weeks of supplementation, compared to placebo group
  serum CRP levels: significantly lower
[6]; human serum, any time point, b137
  TNF-alpha levels: No change occurred
[6]; human, group A, Wk5 compared to BL, p<0.01
  TNF-α: lower
[7]
  cytotoxicity (MTT): did not show any cytotoxic properties
[8]
  ACE-1 mRNA levels: didn’t not change
[9]
  Furin expression levels: did not show any effect
[10]
  virus growth (plaque assay): successful at inhibiting virus growth
[10]; Severe acute respiratory syndrome coronavirus 2, Calu-3, read-out: IC50, inhibition of Calu-3 infection
  IC50: 139 µM
